Experimental data as given in US20220257774A1, “AROMATIC AMINE AR AHD BET TARGETING PROTEIN DEGRADATION CHIMERA COMPOUND AND USE” (HINOVA PHARMACEUTICALS INC., priority 2019, published 2022).
Read-outs that look alike come from different tables or passages of the source.

System: LNCaP/AR cells
Experiment: Inhibition of the proliferation of LNCap/AR cells (CCK-8)
Format: cell-based
Details: read-out: LNCap/AR IC50
Description: 1. Biological Assay of the Inhibition on the Proliferation of LNCap/AR Cells
(1) Experimental materials and instruments: LNCaP/AR cell line and 22RV1 cell line (provided by Sichuan Kangcheng Biotechnology Co., Ltd.) Fetal bovine serum FBS (Gibco, Cat. No. 10099-141) 0.01M PBS (Biosharp, Cat. No. 162262) RIPM1640 medium (Hyclone, Cat. No. 308090.01) Penicillin-Streptomycin (Hyclone, Cat. No. SV30010) Cell counting kit-8 (Signalway Antibody, Cat. No. CP002) DMSO (Sigma, Cat. No. D5879) Centrifuge Tube, 15 ml (Excell Bio, Cat. No. CS015-0001) Cell Culture Dish, (Excell Bio, Cat. No. CS016-0128) 96-well cell culture plate (Corning, Cat. No. 3599) Microplate reader (Thermo Multiskan MK3 type)
(2) Experimental Methods:
a. Preparation of Buffer Cell culture medium: RIPM1640 medium, 10% FBS, 1% Pen Strep: PBS buffer: PBS powder was dissolved in 2 L of ultrapure water and sterilized. b. Experimental Procedures 1) LNCaP/AR cells were subcultured in cell culture media, and then the cells in good growth condition were seeded in a 96-well plate at 80 μL/well (1000 cells/well), and cultured overnight in a 37° C., 5% CO2 cell incubator. 2) The drug was prepared into a 10 mM stock solution with dimethyl sulfoxide (DMSO). Prior to use, the stock solution was diluted in a ratio of […] with DMSO, and then diluted at a 3-fold gradient to obtain 9 serial concentrations. Then, each concentration of compound was further diluted in a ratio of 1:200 with the culture medium (to ensure that the DMSO concentration in the culture system was 0.1%), and two wells were set for each concentration. 20 μL of the diluted compound solution was added to the well of the cell culture (with a final concentration of 10 μM, 3.3 μM, 1.1 μM . . . ), and then the plate was gently tapped to thoroughly mix. In addition, the experiment included 3 negative control wells only containing cells and 3 blank control wells only containing culture medium (6 wells were each added with DMSO diluted in a ratio of 1:200 with 20 μL of culture medium). c. Result Detection: 1) After culturing for 6 days, 10 μL of CCK-8 was added to each well, and the plate was further incubated for 1 h in a 37° C., 5% CO2 cell incubator. 2) The absorbance (OD value) was measured at 450 nm with a multifunctional microplate reader. 3) The data was analyzed by the Dose-response-inhibition equation in the software GraphPad Prism5, and the IC50 value was obtained. 2. Biological assay of the inhibition on the proliferation of other drug-resistant prostate cancer cells

[1] = 144 h, LNCaP/AR cells, 6 days culture, CCK-8

Row | Compound | IC50 [1] | other results
1 | Cc1ccc(-c2c(C)noc2C)cc1N(CCCCCOCC(=O)N[C@H](C(=O)N1C[C@H](O)C[C@H]1C(=O)N[C@@H](C)c1ccc(-c2scnc2C)cc1)C(C)(C)C)c1ccc(-n2cncn2)cc1 [Compound 91, (2S,4R)-1-((S)-2-(2-((5-((4-(1H-1,2,4-triazol-1-yl)phenyl)(5-(3,5-dimethylisoxazol-4-yl)-2-methylphenyl)amino)pentyl)oxy)acetylamino)-3,3-dimethylbutyryl)-4-hydroxy-N—((S)-1-(4-(4-methylthiazol-5-yl)phenyl)ethyl)-pyrrolidinyl-2-formamide] | 0.101 to 0.5 µM | –
2 | Cc1ccc(-c2c(C)noc2C)cc1N(CCCCCOCC(=O)N[C@H](C(=O)N1C[C@H](O)C[C@H]1C(=O)N[C@@H](C)c1ccc(-c2scnc2C)cc1)C(C)(C)C)c1ccc(-n2ccnn2)c(Br)c1 [Compound 19] | < 0.1 µM | –
3 | Cc1ccc(-c2c(C)noc2C)cc1N(CCCCCOCC(=O)N[C@H](C(=O)N1C[C@H](O)C[C@H]1C(=O)N[C@@H](C)c1ccc(-c2scnc2C)cc1)C(C)(C)C)c1ccc(-n2ccnc2)c(Cl)c1 [Compound 12, (2S,4R)-1-((S)-2-(2-((5-((3-chloro-4-(1H-imidazol-1-yl)phenyl)(5-(3,5-dimethylisoxazol-4-yl)-2-methylphenyl)amino)n-pentyl)oxy)acetylamino)-3,3-dimethylbutyryl)-4-hydroxy-N—((S)-1-(4-(4-methylthiazol-5-yl)phenyl)ethyl) pyrrolidinyl-2-formamide] | 0.101 to 0.5 µM | –
4 | CCN(c1ccc(C#N)c(Cl)c1)c1cc(-c2c(C)nn(CCCCCOCC(=O)N[C@H](C(=O)N3C[C@H](O)C[C@H]3C(=O)N[C@@H](C)c3ccc(-c4scnc4C)cc3)C(C)(C)C)c2C)ccc1C [Compound 1] | – | IC50 (LNCaP/AR, 144 h): > 2 µM
5 | Cc1ccc(-c2c(C)noc2C)cc1N(CCC1CCN(c2ccc3c(c2)C(=O)N(C2CCC(=O)NC2=O)C3=O)CC1)c1ccc(C2(C#N)CC2)cc1 (centres unmarked) [Compound 28, 1-(4-((5-(3,5-Dimethylisoxazol-4-yl)-2-methylphenyl)(2-(1-(2-(2,6-dioxopiperidin-3-yl)-1,3-dioxoisoindolin-5-yl)piperidin-4-yl)ethyl)amino)phenyl)cyclopropane-1-carbonitrile] | 0.101 to 0.5 µM | –
6 | Cc1ccc(-c2c(C)noc2C)cc1N(CC1CCN(CCC(=O)N[C@H](C(=O)N2C[C@H](O)C[C@H]2C(=O)N[C@@H](C)c2ccc(-c3scnc3C)cc2)C(C)(C)C)CC1)c1ccc(-n2ccnc2)c(Br)c1 [Compound 100, (2S,4R)-1-((S)-2-(3-(4-(((3-Bromo-4-(1H-imidazol-1-yl)phenyl)(5-(3,5-dimethylisoxazol-4-yl)-2-methylphenyl)amino)methyl)piperidin-1-yl)propionamide)-3,3-dimethylbutyryl)-4-hydroxy-N—((S)-1-(4-(4-methylthiazol-5-yl)phenyl)ethyl)pyrrolidine-2-formamide] | 0.501 to 2 µM | –
7 | Cc1ccc(-c2c(C)noc2C)cc1N(CCCCOCC(=O)N[C@H](C(=O)N1C[C@H](O)C[C@H]1C(=O)N[C@@H](C)c1ccc(-c2scnc2C)cc1)C(C)(C)C)c1ccc(-n2ccnc2)cc1 [Compound 85, (2S,4R)-1-((S)-2-(2-(4-((4-(1H-imidazol-1-yl)phenyl)(5-(3,5-dimethylisoxazol-4-yl)-2-methylphenyl)amino)butoxy)acetamido)-3,3-dimethylbutyryl)-4-hydroxy-N—((S)-1-(4-(4-methylthiazol-5-yl)phenyl)ethyl)pyrrolidine-2-carboxamide] | 0.101 to 0.5 µM | –
8 | CC(=O)O[C@@H]1C[C@@H](C(=O)N[C@@H](C)c2ccc(-c3scnc3C)cc2)N(C(=O)[C@@H](NC(=O)CN2CCN(CCN(c3ccc(-n4ccnc4)c(Br)c3)c3cc(-c4c(C)noc4C)ccc3C)CC2)C(C)(C)C)C1 [Compound 47, (3R,5S)-1-((S)-2-(2-(4-(2-((3-bromo-4-(1H-imidazol-1-yl)phenyl)(5-(3,5-dimethylisoxazol-4-yl)-2-methylphenyl)amino)ethyl)piperazin-1-yl)acetamido)-3,3-dimethylbutanol)-5-((S)-1-(4-methylthiazol-5-yl)phenyl)ethyl)carbamoyl)pyrrolidine-3-yl acetate] | 0.501 to 2 µM | –
9 | Cc1ccc(-c2c(C)noc2C)cc1N(CCCCCNc1ccc2c(c1)C(=O)N(C1CCC(=O)N(C)C1=O)C2=O)c1ccc(C2(C#N)CC2)cc1 (centres unmarked) [Compound 151, 1-(4-((5-(3,5-Dimethylisoxazol-4-yl)-2-methylphenyl)(5-((2-(1-methyl-2,6-dioxopiperidin-3)-1,3-dicarbonylisoindolin-5-yl))amino)pentyl)amino)phenylcyclopropanecarbonitrile] | > 2 µM | –
10 | Cc1ncc(-c2c(C)noc2C)cc1N(CCCCCOCC(=O)N[C@H](C(=O)N1C[C@H](O)C[C@H]1C(=O)N[C@@H](C)c1ccc(-c2scnc2C)cc1)C(C)(C)C)c1ccc(-n2ccnc2)c(Br)c1 [Compound 49, (2S,4R)-1-((S)-2-(2-((5-((3-bromo-4-(1H-imidazol-1-yl)phenyl)(5-(3,5-dimethylisoxazol-4-yl)-2-methylpyridin-3-yl)amino)pentyl)oxy)acetamido)-3,3-dimethylbutyryl)-4-hydroxy-N—((S)-1-(4-(4-methylthiazol-5-yl)phenyl)ethyl)pyrrolidine-2-formamide] | 0.501 to 2 µM | –
11 | Cc1ccc(-c2c(C)noc2C)cc1N(CCCCCOCC(=O)N[C@H](C(=O)N1C[C@H](O)C[C@H]1C(=O)N[C@@H](C)c1ccc(-c2scnc2C)cc1)C(C)(C)C)c1ccc(F)c(-n2ccnc2)c1 [Compound 16] | > 2 µM | –
12 | Cc1ccc(-c2c(C)noc2C)cc1N(CCCCCOCC(=O)N[C@H](C(=O)N1C[C@H](O)C[C@H]1C(=O)N[C@@H](C)c1ccc(-c2scnc2C)cc1)C(C)(C)C)c1ccc(-n2ccnc2)cc1 [Compound 83, (2S,4R)-1-((S)-2-(2-((5-((4-(1H-imidazol-1-yl)phenyl)(5-(3,5-dimethylisoxazol-4-yl)-2-methylphenyl)amino)pentyl)oxy)acetylamino)-3,3-dimethylbutyryl)-4-hydroxy-N—((S)-1-(4-(4-methylthiazol-5-yl)phenyl)ethyl)-pyrrolidinyl-2-formamide] | – | IC50 (LNCaP/AR cells, 6 days culture, CCK-8): < 0.1 µM
13 | Cc1ccc(-c2c(C)noc2C)cc1N(CCCCCN1C(=O)CCC(N2Cc3cc(N)ccc3C2=O)C1=O)c1ccc(C#N)c(Cl)c1 (centres unmarked) [Compound 59, 4-((5-(3-(5-amino-1-oxoisoindolin-2-yl)-2,6-dioxopiperidin-1-yl)pentyl)(5-(3,5-dimethylisoxazol-4-yl)-2-methylphenyl)amino)-2-chlorobenzonitrile] | – | IC50 (LNCaP/AR, 144 h): 0.501 to 2 µM
14 | CC(=O)O[C@@H]1C[C@@H](C(=O)N[C@@H](C)c2ccc(-c3scnc3C)cc2)N(C(=O)[C@@H](NC(=O)COCCCCCN(c2ccc(-n3ccnc3)c(Br)c2)c2cc(-c3c(C)noc3C)cnc2C)C(C)(C)C)C1 [Compound 48, (3R,5S)-1-((S)-2-(2-((5-((3-bromo-4-(1H-imidazol-1-yl)phenyl)(5-(3,5-dimethylisoxazol-4-yl)-2-methylpyridin-3-yl)amino)pentyl)oxy)acetamido)-3,3-dimethylbutanol)-5-((S)-1-(4-methylthiazol-5-yl)phenyl)ethyl)carbamoyl)pyrrolidine-3-yl acetate] | 0.501 to 2 µM | –
15 | Cc1ccc(-c2c(C)noc2C)cc1N(CCCCCOCC(=O)N[C@H](C(=O)N1C[C@H](O)C[C@H]1C(=O)N[C@@H](C)c1ccc(-c2scnc2C)cc1)C(C)(C)C)c1ccc(Br)cc1 [Compound 26, (2S,4R)-1-((S)-2-(2-((5-((4-Bromophenyl)(5-(3,5-Dimethylisoxazol-4-yl)-2-methylphenyl)amino)pentyl)oxy)acetamido)-3,3-dimethylbutyryl)-4-hydroxy-N—((S)-1-(4-(4-methylthiazol-5-yl)phenyl)ethyl)pyrrolidine-2-formamide] | 0.101 to 0.5 µM | –
16 | Cc1ccc(-c2c(C)noc2C)cc1N(CCCCCCNc1cccc2c1CN(C1CCC(=O)NC1=O)C2=O)c1ccc(-n2ccnc2)c(Br)c1 (centres unmarked) [Compound 118, 3-(4-((6-((3-Bromo-4-(1H-imidazol-1-yl)phenyl)(5-(3,5-dimethylisoxazol-4-yl)-2-methylphenyl)amino)hexyl)amino)-1-oxoisoindolin-2-yl)piperidine-2,6-dione] | > 2 µM | –
17 | CC(=O)O[C@@H]1C[C@@H](C(=O)N[C@@H](C)c2ccc(-c3scnc3C)cc2)N(C(=O)[C@@H](NC(=O)COCCOCCN(c2ccc(-n3ccnc3)c(Br)c2)c2cc(-c3c(C)noc3C)ccc2C)C(C)(C)C)C1 [Compound 54] | > 2 µM | –
